Molecules are shown by their SMILES.

In assay [1] the target is T1, Purine nucleoside phosphorylase (Homo sapiens, UniProt P00491).
T1 sequence (P00491 whole entry): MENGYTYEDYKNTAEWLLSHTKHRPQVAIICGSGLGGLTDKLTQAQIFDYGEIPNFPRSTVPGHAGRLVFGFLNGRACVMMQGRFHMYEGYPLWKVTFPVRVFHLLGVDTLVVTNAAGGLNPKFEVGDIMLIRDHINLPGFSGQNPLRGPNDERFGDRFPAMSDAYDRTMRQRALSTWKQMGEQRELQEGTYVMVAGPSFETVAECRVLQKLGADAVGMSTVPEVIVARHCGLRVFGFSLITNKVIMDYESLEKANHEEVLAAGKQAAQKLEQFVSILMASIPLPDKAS
Description: Inhibition of human purine nucleoside phosphorylase; Initial rate.

Assay [2] concerns the target T1, Purine nucleoside phosphorylase. This is another data set of the same source.
Description: Equilibrium dissociation constant determined against human purine nucleoside phosphorylase (PNP) after slow-onset inhibition

As a reminder, the Ki is the equilibrium dissociation constant of an inhibitor or competing ligand from its target. On to `Cc1nc2c(O)[nH]cnc-2c1[C@@H]1N[C@H](CO)[C@H](O)C1O` (stereo partly drawn), for which, in assay [1], the inhibition constant (Ki) came out at 10.1 nM.
The compound `Nc1nc(O)c2[nH]cc([C@H]3C[C@@H](O)[C@@H](CO)N3)c2n1` gave a Ki in assay [1] of 0.22 nM.
On the same count and under the same terms, the figure for `OC[C@H]1N[C@@H](c2c[nH]c3c(O)ncnc23)C[C@H]1O` is 0.25 nM; for `C[C@H]1N[C@@H](c2c[nH]c3c(=O)[nH]cnc23)C(O)[C@H]1O` (stereo partly drawn) it is 25 nM.
For the compound `Oc1ncnc2c([C@@H]3N[C@H](CF)[C@H](O)C3O)c[nH]c12` (stereo partly drawn), the inhibitory constant (Ki) in assay [1] came out at 81 nM; in assay [2], 7 nM.
On to `Nc1[nH]cnc2c(C[C@@H]3N[C@H](CO)[C@H](O)C3O)cnc1-2` (stereo partly drawn), for which the Ki in assay [1] is above 30000 nM.
For the compound `OC[C@H]1N[C@@H](c2n[nH]c3c(O)ncnc23)[C@H](O)[C@@H]1O`, the Ki is 1.4 nM in assay [1] and 0.18 nM in assay [2].
For `COC1[C@@H](O)[C@@H](CO)N[C@H]1c1c[nH]c2c(=O)[nH]cnc12` (stereo partly drawn), in assay [1], the Ki amounted to 5.9 nM.
Take `Nc1nc2c([C@@H]3N[C@H](CO)[C@@H](O)[C@H]3O)c[nH]c2c(=O)[nH]1`: the figures for the Ki in assay [1] and in assay [2] were 0.54 nM and 0.042 nM, respectively.
With `OC[C@@H]1CC(O)[C@H](c2c[nH]c3c(O)ncnc23)N1` (stereo partly drawn), the Ki in assay [1] is 9.5 nM.
Same read-out and setting: for `OC[C@H]1N[C@@H](c2c[nH]c3c(O)ncnc23)C(F)(F)[C@H]1O` the value was 1.4 nM.
Consider `OC[C@H]1N[C@@H](c2c(F)[nH]c3c(O)ncnc23)C(O)[C@H]1O` (stereo partly drawn), for which the Ki was determined as 5.6 nM in assay [1] and 0.39 nM in assay [2].
As to `CCCN1[C@H](CO)[C@H](O)C(O)[C@@H]1c1c[nH]c2c(O)ncnc12` (stereo partly drawn), the affinity in assay [1], expressed as Ki, was 415 nM.
`OC[C@H]1N[C@@H](Cc2c[nH]c3c(O)ncnc23)C(O)[C@H]1O` (stereo partly drawn) came in with a Ki in assay [1] of 250 nM.
As to `Cn1cc([C@@H]2N[C@H](CO)[C@H](O)C2O)c2ncnc(O)c21` (stereo partly drawn), the Ki in assay [1] was found to be 4.7 nM.
In assay [1], `OC[C@@H]1[C@H](O)C(O)CN1Cc1c[nH]c2c(O)ncnc12` (stereo partly drawn) displayed a Ki of 2.84 nM.
Consider `COc1[nH]cnc2c([C@@H]3N[C@H](CO)[C@H](O)C3O)cnc1-2` (stereo partly drawn), for which the Ki in assay [1] turned out to be 4.7 nM.
Turning to `OC[C@@H]1[C@H](O)C(O)CN1c1c[nH]c2c(O)ncnc12` (stereo partly drawn), affinity in assay [1] was put at a Ki of 12700 nM.
Compound `OC[C@H]1N[C@@H](c2c[nH]c3c(S)ncnc23)C(O)[C@H]1O` (stereo partly drawn) showed a Ki in assay [1] of 24.7 nM.
